Key:
[1] = Absorption test, pulmonary administration (2 mg/kg) of suspension; assay type: in vivo, rhesus monkeys
Procedure: 1. Pulmonary Administration (2 mg/kg)
Each of three male rhesus monkeys (mean body weight: 3.35 kg, age: 5) was anesthetized with ketamine and, after inserting a bronchial catheter and inserting an administration tube inside the catheter, the suspension produced in Preparation Example 1 was administered into the lung in a dose of 2 mg/kg. Before and after administration (0.25, 0.5, 1, 2, 3, 4, 6, and 8 hours), blood was collected from the cubital cutaneous vein and the obtained blood was centrifugally separated to obtain blood plasma, and then the concentration of the compound 1 was measured.
(§1) 5. Intravenous Administration (0.4 mg/kg)
(§2) The preparation produced in Comparative Example 3 was intravenously administered to each of three male cynomolgus monkeys (mean body weight: 4 kg, age: 5 to 6) in the concentration of 0.4 mg/kg. After administration, blood was collected from the cubital cutaneous vein and the obtained blood was centrifugally separated to obtain blood plasma, and then the concentration of the compound 1 was measured.
(§3) Also, a bioavailability (BA (%)) was calculated from the obtained results.
(§4) BA denotes a numerical value represented by “(AUC of pulmonary administration/dose of pulmonary administration)/(AUC of intravenous administration/dose of intravenous administration)×100” (%), and AUC denotes an area under the blood concentration time curve (ng·hr/ml).

[2] = Absorption test, pulmonary administration (0.2 mg/kg) of suspension; assay type: in vivo; settings: cynomolgus monkey, plasma, suspension of Preparation Example 2, male cynomolgus monkeys, relative to intravenous 0.4 mg/kg, read-out: bioavailability (BA)
Procedure: 2. Pulmonary Administration (0.2 mg/kg)
Each of three male cynomolgus monkeys (mean body weight: 3.5 to 4.5 kg, age: 5 to 6) was anesthetized with ketamine and, after inserting a bronchial catheter and inserting an administration tube inside the catheter, the suspension produced in Preparation Example 2 was administered into the lung in a dose of 0.2 mg/kg. Before and after administration (0.25, 0.5, 1, 2, 3, 4, 8 and 12 hours), blood was collected from the cephalic vein and the obtained blood was centrifugally separated to obtain blood plasma, and then the concentration of the compound 1 was measured.
as §1, §2, §3, §4

[3] = Absorption test, oral administration (3 mg/kg) of microemulsion preparation; assay type: in vivo; settings: rhesus monkey, plasma, preparation of Comparative Example 1, male rhesus monkeys, relative to intravenous 0.4 mg/kg, read-out: bioavailability (BA)
Procedure: 3. Oral Administration (3 mg/kg)
An oral administration tube was inserted through the mouth of each of three male rhesus monkeys (mean body weight: 3.5 kg, age: 3) and 5.25 mL (3 mg/kg) of the preparation produced in Comparative Example 1 was orally administrated. After administration (0.5, 1, 2, 4, and 6 hours), blood was collected from the cubital cutaneous vein and the obtained blood was centrifugally separated to obtain blood plasma, and then the concentration of the compound 1 was measured.
as §1, §2, §3, §4

[4] = Particle size measurement by laser diffraction particle size distribution analyzer; assay type: physicochemical; settings: volume mean diameter
Procedure: The “mean particle size” means a particle size which represents a group of particles, when the group of particles is composed of a lot of particles each having a non-uniform size. The mean particle size includes, but is not limited to, weighting averages such as a number mean diameter, a length mean diameter, an area mean diameter, a volume mean diameter and the like, and means the volume mean diameter in the present invention.
For the measurement of the particle size, a hexane solution (20 mM) of Aerosol OT was used as a disperse medium. Particles to be measured were placed in a test tube and 1 mL of the disperse medium was added to obtain a suspension. The suspension was subjected to an ultrasonic treatment for one minute and the particle size was measured using a laser diffraction particle size distribution analyzer (SALD-2100: Shimadzu Corporation). In the case of measuring the particle size of particles in the suspension, an aqueous 0.1% Polysorbate 80 solution was used as the disperse medium in place of Aerosol OT.

[5] = Solubility in water; assay type: physicochemical

improvement in BA ([1]; pulmonary administration versus oral administration): ≥ 450 times
bioavailability ([1]; rhesus monkey, plasma, pulmonary administration 2 mg/kg, suspension of Preparation Example 1, male rhesus monkeys, relative to intravenous 0.4 mg/kg, read-out: bioavailability (BA)): 93.4%
bioavailability [2]: 103%
bioavailability [3]: 0.2%
Mean particle size (μm) [4]: about 120 μm
solubility in water [5]: poorly soluble in water
Compound: CC(C)(C)OC(=O)N1CSC[C@H]1C(=O)N[C@@H](CSCC1CCCCC1)C(=O)NC1CCN(Cc2ccccc2)CC1 [compound 1, Tert-butyl (4R)-4-{[((1R)-2-[(1-benzylpiperidin-4-yl)amino]-1-{[(cyclohexylmethyl)thio]methyl}-2-oxoethyl)amino]carbonyl}-1,3-thiazolidine-3-carboxylate]

From patent US20090022915A1, “PARTICLE AND PREPARATION CONTAINING THE PARTICLE” (ONO PHARMACEUTICAL CO., LTD.,, priority 2005, published 2009)
